Results published in patent US20150346214A1, “DETECTION OF MEMBRANE PROTEINS” (priority 2012, published 2015).

Legend:
[1] = biological target: ammonium channel (AmtB) (Escherichia coli, UniProt P69681); test: Mass spectra and ion mobility MS of AmtB complex in three detergents (Example 2); parameters: species or system E. coli
Experimental: (§1) AmtB-GFP and AQPZ-GFP were extracted from purified membranes in 2% OG in Buffer B and incubated overnight at 4° C. Extracted membrane proteins were clarified by centrifugation at 20,000 g for 25 minutes at 4° C. The clarified supernatant was filtered before loading onto a 5 mL HisTrap-HP column (GE Healthcare, Piscataway, NJ) equilibrated in Buffer E (200 mM sodium chloride, 10% glycerol, 20 mM Imidazole, 0.025% DDM, and 50 mM TRIS, pH 7.4 at room temperature). After the clarified supernatant was loaded, the column was initially washed with 40-50 mL of Buffer E containing 1% OG instead of DDM followed by several column volumes of Buffer E until a steady baseline was reached. Protein was eluted with a linear gradient to 100% in two column volumes of Buffer F (100 mM sodium chloride, 10% glycerol, 500 mM Imidazole, 0.025% DDM, and 50 mM TRIS, pH 7.4 at room temperature). Peak fractions were pooled, supplemented with 5mM BME and His-tagged TEV protease, arid dialyzed against Buffer G (150 mM sodium chloride, 10% glycerol, 20 mM Imidazole, 0.02% DDM, and 50 mM TRIS, pH 7.4 at room temperature) overnight at 4° C. After overnight incubation at 4° C., samples were filtered and passed back over a 5 mL. HisTrap-HP column equilibrated in Buffer E. Flow through containing the untagged membrane protein was collected and concentrated using a 100 kDa MWCO concentrator. Concentrated protein was flash frozen in liquid nitrogen and stored at -80° C.
(§2) Frozen samples were thawed on ice prior to detergent exchange over gel filtration. Samples were injected on a Superdex 200 10/300 (GE Healthcare) equilibrated in Buffer H (130 mM sodium chloride, 10% glycerol, and 50 mM TRIS, pH 7.4 at room temperature) supplemented with 0.5% of C8E4, 0.4% of NG, or 0.02% of DDM. Peak fractions were concentrated using a 100 kDa MWCO concentrator. Concentrated protein was either used directly or flash-frozen in liquid nitrogen and stored at −80° C. Purified membrane proteins were buffer exchanged into MS Buffer (2× CMC detergent of interest and 200 mM Ammonium Acetate, pH 8.0 with Ammonium Hydroxide) using a centrifugal buffer exchange device (Micro Bio-Spin 6, Bio-Rad).
(§3) Buffer exchanged protein was analysed on a quadrupole ion mobility time-of-flight mass spectrometer (Synapt HDMS, Waters Corp.) modified with an 18 cm drift cell with radial RF confinement (RF amplitude 200 V) and a linear voltage gradient along the axis of ion transmission such that collision cross section (CCS) values could be determined directly.
(§4) Mass spectra were acquired with instrument set to 10 volts for sample cone and 200 volts for collision voltage.
(§5) The preservation of native structure is most likely due to the charge reducing behaviour of C8E4, as well as other polyoxyalkylene glycol detergents, which results in a two to five fold reduction in activation energy. In addition, under ELAB values slightly greater than 1500, the CCS value increases consistent with partial unfolding. More importantly, gas-phase unfolding can be observed for these membrane complexes at ELAB values of 1750 to 2250. These gas-phase unfolding transitions can be altered in the presence of a drug molecule that stabilises protein structure, thereby enabling the detection of drug molecules that stabilise protein structure.

[2] = biological target: Aquaporin Z (AQPZ) (Escherichia coli, UniProt P60844); test: Mass spectra and ion mobility MS of AQPZ complex in three detergents (Example 2); parameters: species or system E. coli
Chain of Aquaporin Z (AQPZ) (P60844 whole entry): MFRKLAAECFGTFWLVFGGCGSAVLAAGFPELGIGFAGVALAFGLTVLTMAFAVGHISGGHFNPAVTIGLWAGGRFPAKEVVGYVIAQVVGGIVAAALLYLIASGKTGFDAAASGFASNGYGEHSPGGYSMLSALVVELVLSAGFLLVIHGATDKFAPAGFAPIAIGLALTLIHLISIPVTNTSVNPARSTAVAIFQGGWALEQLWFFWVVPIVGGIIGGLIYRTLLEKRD
Experimental: as §1, §2, §3, §4, §5

[3] = biological target: E. coli ammonium channel C-terminally fused to green fluorescent protein (AmtB-GFP) (Escherichia coli, UniProt P69681, S65T); conditions: AmtB-GFP trimer in MS buffer with 2x CMC of the detergent; charge state envelopes modelled with a Gaussian
Experimental: The activation energy required to achieve resolved peaks of E. coli ammonium channel C-terminally fused to green fluorescent protein (AmtB-GFP) was assessed for a variety of non-ionic detergents.
AmtB-GFP was extracted from purified membranes (described above) with 1-2% (w/v) of the detergent of interest in Buffer B and incubated for one to three hours at room temperature or overnight at 4° C. Insoluble material was pelleted by centrifugation at 20,000 g for 25 minutes at 4° C. The clarified supernatant was loaded onto small Ni-NTA agarose (Qiagen) drip columns (Bio-spin Chromatography columns, Bio-Rad) and washed with several column volumes of Buffer C (200 mM sodium chloride, 20 mM Imidazole, 5 mM BME, 2× CMC detergent of interest, and 50 mM TRIS, pH 8.0 at room temperature). AmtB-GFP was eluted with two column volumes of Buffer D (100 mM sodium chloride, 250 mM Imidazole, 5 mM BME, 2× CMC detergent of interest, and 50 mM TRIS, pH 8.0 at room temperature). Eluted protein was concentrated using a 100 kDa MWCO concentrator and buffer exchanged into MS Buffer (2× CMC detergent of interest and 200 mM Ammonium Acetate, pH 8.0 with Ammonium Hydroxide) using a centrifugal buffer exchange device (Micro Bio-Spin 6, Bio-Rad).
Buffer exchanged protein was analysed on a Q-TOF 2 mass spectrometer (Micromass, Manchester, UK) with a Z-spray source including modifications for protein complexes after introduction of complexes from gold-coated nanoflow capillaries.

SMILES: CCCCCCCCCO[C@@H]1O[C@H](CO)[C@@H](O)[C@H](O)[C@H]1O [NG, n-Nonyl-β-D-glucopyranoside]
- experimental collisional cross section (CCS) / folded state ([1]; AmtB, IM-MS, CIU fingerprints, C8E4 at ELAB <1500): no CCS could be observed indicating native structure
- species in mass spectrum (expected oligomer versus dissociation products) ([1]; trimeric AmtB, sample cone 10 volts, collision voltage 200 volts): mainly dissociation products
- experimental collisional cross section (CCS) / folded state ([2]; AQPZ, IM-MS, CIU fingerprints, C8E4 at ELAB <1500): the complex is unfolded
- species in mass spectrum (expected oligomer versus dissociation products) ([2]; tetrameric AQPZ, sample cone 10 volts, collision voltage 200 volts): mainly dissociation products
- Zavg (mean charge state) [3]: 30.4
